Key:
[1] = DPPH radical scavenger test (acellular); conditions: 30 minutes
Source text: Study of the radical scavenger activity of the hydroxytyrosol dihydrosinapate of the invention of formula (IIa) and of the prior-art ferulic acid derivative in an acellular in vitro model, using DPPH.
1,1-Diphenyl-2-picrylhydrazyl, owing to its paramagnetic structure, is able to accept an electron or a hydrogen radical in order to become a stable diamagnetic molecule.
The addition of a compound which provides electrons gives rise to decoloring of the 1,1-diphenyl-2-picrylhydrazyl in a manner proportional to the number of electrons accepted by the radical, and this decoloration can be monitored by measuring the absorbance at 530 nm (OD530).
[…] At the end of the incubation, the radical scavenger activity of the compound under test is evaluated by measuring the absorbance of the solution at 530 nm.
The results are presented as % inhibition of the DPPH radical, in Table 3a).
The radical scavenger activity of the test product is calculated as a percentage, according to the following formula:
100−((OD530 in the presence of the compound under test/OD530 in the absence of compound)×100)

[2] = TBARS test, lipid peroxidation of UVB-irradiated liposomal suspension; conditions: UVB 2 hours
Protocol: Study of the radical scavenger activity of the hydroxytyrosol dihydrosinapate of the invention of formula (IIa) and of the prior-art ferulic acid derivative by the TBARS test.
Two identical 96-well plates are produced according to a defined plate plan. 50 μL of a sample mixture prepared by diluting a solution of a test compound or of a negative control (vehicle medium without test compound) or of a positive control (D-L-alpha-tocopherol) to 1/10 in a liposomal suspension are distributed per well, in quadruplicate. One of the two plates is irradiated with UVB for 2 hours. The other plate, serving as a control, is incubated in the absence of light and at ambient temperature for 2 hours.
At the end of irradiation, an amount of 100 μL of 20% trichloroacetic acid solution was added per well, followed by an amount of 34 μL of 1% thiobarbituric acid solution. The plates are then incubated at 105° C. for 25 minutes.
The contents of each well are centrifuged at 5700 rpm for 5 minutes, and then an amount of 100 μL of supernatant was deposited in new plates, according to the same plan, and the absorbance was read off at 530 nm.
The positive experimental control was D-L-alpha-tocopherol, at a concentration of 1%, for which a percentage inhibition of 80% was obtained.

[3] = test system: keratinocytes from the A431 line; assay: Antiinflammatory activity: release of E2 prostaglandins by UVB-irradiated keratinocytes (ELISA); type: cell-based; conditions: A431 keratinocytes, 30 μM, UV B 30 mJ/cm2, untreated irradiated control = 100%
Protocol: Study of the antiinflammatory activity of the hydroxytyrosol dihydrosinapate of the invention of formula (IIa), by measurement of the inhibition of release of E2 prostaglandins by keratinocytes under the effect of UVB.
The keratinocytes from the A431 line are cultured in an appropriate medium at 37° C. for 72 hours under 5% CO2. The culture medium is then withdrawn and replaced with the medium containing the products under test, and also the positive and negative controls. The cells are subsequently irradiated with UV B at 30 mJ/cm2. The cells are incubated for an extra 24 hours at 37° C. under 5% CO2. The cell supernatants are subsequently recovered, and the E2 prostaglandins (PGE2) released are quantified by an ELISA assay.
An amount of 100 μL of each sample, control or PGE2 standard is transferred to the wells of a 96-well plate, which are coated with antibodies directed against rat immunoglobulin G (IgG). Then an amount of 25 μL of PGE2-peroxidase conjugate is added to each well, followed by an amount of 25 μL of anti-PGE2 monoclonal antibody. The plate is incubated at 4° C. overnight. The wells are then rinsed and an amount of 100 μL of peroxidase substrate is added. After 15 minutes of incubation at ambient temperature, the optical density is read off at 450 nm. The amount of prostaglandin E2 released after irradiation is deduced from a commercial PGE2 standard range from 0 to 400 pg/mL of PGE2.
The negative control, represented by the cells which were not treated with samples and which underwent irradiation by UV B, gave rise to 100% release of PGE2. The positive experimental control is aspirin, which at 0.03% gave rise to 5%+/−2% release of PGE2.

For `COc1cc(CCC(=O)OCCc2ccc(O)c(O)c2)cc(OC)c1O` [Hydroxytyrosol dihydrosinapate (IIa), hydroxytyrosol dihydrosinapate], which “% inhibition of the DPPH radical” value ([1]; 1 μM) is on record?
Its value is 10.7 +/− 0.59%.

What about the “% inhibition of the DPPH radical” value ([1]; 5 μM) of the same compound?
Its value is 59.68 +/− 0.89%.

And the “% inhibition of the DPPH radical” value ([1]; 10 μM)?
Its value is 82.01 +/− 1.05%.

And the “% inhibition of the DPPH radical” value ([1]; 30 μM)?
The value was 86.68 +/− 0.44%.

What about the “% inhibition of the DPPH radical” value ([1]; 50 μM) of the same compound?
Its value is 88.78 +/− 0.49%.

What about the “% inhibition of the DPPH radical” value ([1]; 100 μM) of the same compound?
The value was 88.28 +/− 0.56%.

What about the “% inhibition of the DPPH radical” value ([1]; 1000 μM) of the same compound?
The value was 89.14 +/− 0.40%.

And the “% inhibition of lipid peroxidation” value ([2]; 1 μM after dilution to 1/10th in the liposomal suspension)?
The value was −10.58%.

What about the “% inhibition of lipid peroxidation” value ([2]; 5 μM after dilution to 1/10th in the liposomal suspension) of the same compound?
The value was 8.21%.

What about the “% inhibition of lipid peroxidation” value ([2]; 30 μM after dilution to 1/10th in the liposomal suspension) of the same compound?
The value was 7.14%.

And the “% inhibition of lipid peroxidation” value ([2]; 50 μM after dilution to 1/10th in the liposomal suspension)?
Its value is 19.12%.

And the “% inhibition of lipid peroxidation” value ([2]; 100 μM after dilution to 1/10th in the liposomal suspension)?
Its value is 41.95%.

What about the “% inhibition of lipid peroxidation” value ([2]; 1000 μM after dilution to 1/10th in the liposomal suspension) of the same compound?
The value was 77.04%.

And the “% release of PGE2 after irradiation” value [3]?
Its value is 22%.

From patent US20150342847A1, “NOVEL DERIVATIVES OF SINAPINIC ACID AND THE COSMETIC OR PHARMACEUTICAL USES THEREOF” (BASF Beauty Care Solutions France SAS, priority 2012, published 2015)
